Laboratory results published in patent EP0054898A1, “Formamidine derivatives, preparation and use thereof, pharmaceutical compositions containing them and their preparation” (HOECHST AKTIENGESELLSCHAFT, priority 1980, dated 1982).

How the values were obtained:
Serum-Lipoproteine = test: Effect on serum lipoproteins (cholesterol in serum and in ultracentrifuge fractions) in rats after 7 days of oral treatment; format: in vivo, männlichen Wistar-Ratten; details: for % Veränderung des Cholesterins gegenüber Kontrolle im Serum / % Veränderung des Cholesterins gegenüber Kontrolle in der Serum-Lipoprotein-Fraktion HDL / % Veränderung des Cholesterins gegenüber Kontrolle in der Serum-Lipoprotein-Fraktion LDL / % Veränderung des Cholesterins gegenüber Kontrolle in der Serum-Lipoprotein-Fraktion VLDL: oral (gavage), 7 days, pooled serum
From the text: Die Wirkung der angeführten Verbindungen auf die Serum- Lipoproteine wurde an männlichen Wistar-Ratten untersucht, die 7 Tage per Schlundsonde mit den angeführten in Polyäthylenglykol 400 suspendierten Verbindungen behandelt wurden. Außerdem wurde eine Kontrollgruppe, die nur das Lösungsmittel Polyäthylenglykol 400 erhielt, mitgeführt, sowie eine Ratten-Gruppe, die zum Vergleich das Standardhypolipidämikum Clofibrat, ebenfalls in Polyäthylenglykol 400 gelöst, erhielt. Pro Gruppe wurden in der Regel 10 Tiere eingesetzt, denen am Ende der Behandlung das Blut nach leichter Äthernakose aus dem Orbitalplexus entnommen wurde. Das daraus gewonnene Serum wurde gepoolt. Die Serum- Lipoproteine wurden in der Ultrazentrifuge in folgende Dichteklassen getrennt: • VLDL 1,006; LDL 1,006 bis 1,04; HDL 1,04 bis 1,21.
Aus den in der Ultrazentrifuge isolierten LipoproteinFraktionen wurde das darin enthaltene Choletserin vollenzymatisch nach der CHOD-PAP-Methode mittels der Testkombination von Boehringer Mannheim bestimmt und die Werte in ug/ml Serum umgerechnet. In der angeführten Tabelle (S.8) ist die Veränderung des Lipoprotein-Cholesterins in der behandelten Gruppe gegenüber einer unter gleichen Bedingungen mitgeführten Kontrollgruppe angegeben.
% Veränderung der Lipoproteine in Ratten-Serum nach siebentägiger oraler Behandlung mit den Verbindungen

Relative liver weight = format: in vivo; details: in wirksamer Dosis; result in words
From the text: Es ist allgemein anerkannt, daß für die Entstehung artericsklerotischer Gefäßveränderungen, insbesondere der coronaren Herzkrankheit, Hyperlipoproteinämien einen wesentlichen Risikofaktor darstellen. Für die Prophylaxe und die Regression von atherosklerotischen Veränderungen kommt daher der Senkung erhöhter Serum-Lipoproteine eine außerordentliche Bedeutung zu. Hierbei kommt es aber auf ganz bestimmte Klassen von Serum-Lipoproteinen an, da die low density (LDL) und very low density-Lipoproteine (VLDL) einen atherogenen Risikofaktor darstellen, während die high density-Lipoproteine (HDL) eine Schutzfunktion gegenüber der coronaren Herzkrankheit darstellen. Hypolipidämika sollen demnach VLDL-Cholesterin und LDL-Cholesterin im Serum erniedrigen, dabei aber die HDL-Cholesterin-Konzentration nach Möglichkeit unbeeinflußt lassen oder sogar erhöhen. Die erfindungsgemäßen Verbindungen haben wertvolle therapeutische Eigenschaften. So erniedrigen sie vor allem die Konzentration von LDL und VLDL, während die HDL-Fraktion entweder in wesentlich geringerem Maße erniedrigt, oder sogar erhöht wird..Sie können daher zur Prophylaxe und Regression von atherosklerotischen Veränderungen herangezogen werden, indem sie einen kausalen Risikofaktor ausschalten. Hierzu zählen nicht nur die primären Hyperlipoproteinämien, sondern auch gewisse.sekundäre Hyperlipidämien wie sie z.B. beim Diabtes vorkommen.

SMILES: CCOC(=O)C(C)(C)Oc1ccc(Cl)cc1 [Clofibrat, reference compound]
- % Veränderung des Cholesterins gegenüber Kontrolle im Serum (Serum-Lipoproteine; Dosis 100 mg/kg/Tag): -24%
- % Veränderung des Cholesterins gegenüber Kontrolle in der Serum-Lipoprotein-Fraktion HDL (Serum-Lipoproteine; Dosis 100 mg/kg/Tag): -33%
- % Veränderung des Cholesterins gegenüber Kontrolle in der Serum-Lipoprotein-Fraktion LDL (Serum-Lipoproteine; Dosis 100 mg/kg/Tag): -25%
- % Veränderung des Cholesterins gegenüber Kontrolle in der Serum-Lipoprotein-Fraktion VLDL (Serum-Lipoproteine; Dosis 100 mg/kg/Tag): -30%
- Wirkung auf die Lipoproteinfraktionen (VLDL, LDL, HDL) (Serum-Lipoproteine; summary in words of the table, 7 days oral): etwa gleichstarke Senkung der LDL-Fraktion und der HDL-Fraktion
- relatives Lebergewicht (Relative liver weight): starken Erhöhung des relativen Lebergewichts

SMILES: Cc1ccc(S(=O)(=O)N(C=Nc2ccc(Sc3ccccc3)cc2)C(C)C)cc1 [Beispiel 28]
- % Veränderung des Cholesterins gegenüber Kontrolle im Serum (Serum-Lipoproteine; Dosis 3 mg/kg/Tag): -5%
- % Veränderung des Cholesterins gegenüber Kontrolle in der Serum-Lipoprotein-Fraktion HDL (Serum-Lipoproteine; Dosis 3 mg/kg/Tag): +2%
- % Veränderung des Cholesterins gegenüber Kontrolle in der Serum-Lipoprotein-Fraktion LDL (Serum-Lipoproteine; Dosis 3 mg/kg/Tag): -25%
- % Veränderung des Cholesterins gegenüber Kontrolle in der Serum-Lipoprotein-Fraktion VLDL (Serum-Lipoproteine; Dosis 3 mg/kg/Tag): -5%

SMILES: Cc1ccc(S(=O)(=O)N(C)C=Nc2ccc(Oc3ccccc3)cc2)cc1 [Beispiel 12]
- % Veränderung des Cholesterins gegenüber Kontrolle im Serum (Serum-Lipoproteine; Dosis 10 mg/kg/Tag): -6%
- % Veränderung des Cholesterins gegenüber Kontrolle in der Serum-Lipoprotein-Fraktion HDL (Serum-Lipoproteine; Dosis 10 mg/kg/Tag): -1%
- % Veränderung des Cholesterins gegenüber Kontrolle in der Serum-Lipoprotein-Fraktion LDL (Serum-Lipoproteine; Dosis 10 mg/kg/Tag): -42%
- % Veränderung des Cholesterins gegenüber Kontrolle in der Serum-Lipoprotein-Fraktion VLDL (Serum-Lipoproteine; Dosis 10 mg/kg/Tag): -70%

SMILES: CCCN(C=Nc1ccc(Oc2ccccc2)cc1)S(=O)(=O)c1ccc(C)cc1 [Beispiel 3]
- % Veränderung des Cholesterins gegenüber Kontrolle im Serum (Serum-Lipoproteine; Dosis 10 mg/kg/Tag): -5%
- % Veränderung des Cholesterins gegenüber Kontrolle in der Serum-Lipoprotein-Fraktion HDL (Serum-Lipoproteine; Dosis 10 mg/kg/Tag): +8%
- % Veränderung des Cholesterins gegenüber Kontrolle in der Serum-Lipoprotein-Fraktion LDL (Serum-Lipoproteine; Dosis 10 mg/kg/Tag): -22%
- % Veränderung des Cholesterins gegenüber Kontrolle in der Serum-Lipoprotein-Fraktion VLDL (Serum-Lipoproteine; Dosis 10 mg/kg/Tag): -32%

SMILES: CCCCN(C=Nc1ccc(Sc2ccccc2)cc1)S(=O)(=O)c1ccc(C)cc1 [Beispiel 27]
- % Veränderung des Cholesterins gegenüber Kontrolle im Serum (Serum-Lipoproteine; Dosis 3 mg/kg/Tag): -18%
- % Veränderung des Cholesterins gegenüber Kontrolle in der Serum-Lipoprotein-Fraktion HDL (Serum-Lipoproteine; Dosis 3 mg/kg/Tag): -2%
- % Veränderung des Cholesterins gegenüber Kontrolle in der Serum-Lipoprotein-Fraktion LDL (Serum-Lipoproteine; Dosis 3 mg/kg/Tag): -50%
- % Veränderung des Cholesterins gegenüber Kontrolle in der Serum-Lipoprotein-Fraktion VLDL (Serum-Lipoproteine; Dosis 3 mg/kg/Tag): -13%

SMILES: Cc1ccc(S(=O)(=O)N(C)C=Nc2ccc(Sc3ccccc3)cc2)cc1 [Beispiel 25]
- % Veränderung des Cholesterins gegenüber Kontrolle im Serum (Serum-Lipoproteine; Dosis 10 mg/kg/Tag): -5%
- % Veränderung des Cholesterins gegenüber Kontrolle in der Serum-Lipoprotein-Fraktion HDL (Serum-Lipoproteine; Dosis 10 mg/kg/Tag): +5%
- % Veränderung des Cholesterins gegenüber Kontrolle in der Serum-Lipoprotein-Fraktion LDL (Serum-Lipoproteine; Dosis 10 mg/kg/Tag): -45%
- % Veränderung des Cholesterins gegenüber Kontrolle in der Serum-Lipoprotein-Fraktion VLDL (Serum-Lipoproteine; Dosis 10 mg/kg/Tag): -70%

SMILES: Cc1ccc(S(=O)(=O)N(C)C=Nc2ccc(Oc3ccc(Cl)cc3Cl)cc2)cc1 [Beispiel 13]
- % Veränderung des Cholesterins gegenüber Kontrolle im Serum (Serum-Lipoproteine; Dosis 10 mg/kg/Tag): -6%
- % Veränderung des Cholesterins gegenüber Kontrolle in der Serum-Lipoprotein-Fraktion HDL (Serum-Lipoproteine; Dosis 10 mg/kg/Tag): +1%
- % Veränderung des Cholesterins gegenüber Kontrolle in der Serum-Lipoprotein-Fraktion LDL (Serum-Lipoproteine; Dosis 10 mg/kg/Tag): -39%
- % Veränderung des Cholesterins gegenüber Kontrolle in der Serum-Lipoprotein-Fraktion VLDL (Serum-Lipoproteine; Dosis 10 mg/kg/Tag): -100%

SMILES: C#CCN(C=Nc1ccc(Oc2ccccc2)cc1)S(=O)(=O)c1ccc(C)cc1 [Beispiel 7]
- % Veränderung des Cholesterins gegenüber Kontrolle im Serum (Serum-Lipoproteine; Dosis 10 mg/kg/Tag): -1%
- % Veränderung des Cholesterins gegenüber Kontrolle in der Serum-Lipoprotein-Fraktion HDL (Serum-Lipoproteine; Dosis 10 mg/kg/Tag): +5%
- % Veränderung des Cholesterins gegenüber Kontrolle in der Serum-Lipoprotein-Fraktion LDL (Serum-Lipoproteine; Dosis 10 mg/kg/Tag): -22%
- % Veränderung des Cholesterins gegenüber Kontrolle in der Serum-Lipoprotein-Fraktion VLDL (Serum-Lipoproteine; Dosis 10 mg/kg/Tag): -51%

SMILES: CN(C#N)C=Nc1ccc(Oc2ccc(Cl)cc2)c(Cl)c1 [Beispiel 50]
- % Veränderung des Cholesterins gegenüber Kontrolle in der Serum-Lipoprotein-Fraktion VLDL (Serum-Lipoproteine; Dosis 1 mg/kg/Tag): +3%

SMILES: Cc1ccc(S(=O)(=O)N(C)C=Nc2ccc(Cl)cc2C)cc1 [Beispiel 38]
- % Veränderung des Cholesterins gegenüber Kontrolle im Serum (Serum-Lipoproteine; Dosis 10 mg/kg/Tag): -8%
- % Veränderung des Cholesterins gegenüber Kontrolle in der Serum-Lipoprotein-Fraktion HDL (Serum-Lipoproteine; Dosis 10 mg/kg/Tag): +2%
- % Veränderung des Cholesterins gegenüber Kontrolle in der Serum-Lipoprotein-Fraktion LDL (Serum-Lipoproteine; Dosis 10 mg/kg/Tag): -36%
- % Veränderung des Cholesterins gegenüber Kontrolle in der Serum-Lipoprotein-Fraktion VLDL (Serum-Lipoproteine; Dosis 10 mg/kg/Tag): -30%

SMILES: CN(C#N)C=Nc1ccc(Oc2ccc(Cl)cc2Cl)cc1 [Beispiel 49]
- % Veränderung des Cholesterins gegenüber Kontrolle im Serum (Serum-Lipoproteine; Dosis 3 mg/kg/Tag): +2%
- % Veränderung des Cholesterins gegenüber Kontrolle in der Serum-Lipoprotein-Fraktion HDL (Serum-Lipoproteine; Dosis 3 mg/kg/Tag): +2%
- % Veränderung des Cholesterins gegenüber Kontrolle in der Serum-Lipoprotein-Fraktion LDL (Serum-Lipoproteine; Dosis 3 mg/kg/Tag): -48%

SMILES: Cc1ccc(S(=O)(=O)N(C)C=Nc2c(C)cc(C)cc2C)cc1 [Beispiel 34]
- % Veränderung des Cholesterins gegenüber Kontrolle im Serum (Serum-Lipoproteine; Dosis 10 mg/kg/Tag): +10%
- % Veränderung des Cholesterins gegenüber Kontrolle in der Serum-Lipoprotein-Fraktion HDL (Serum-Lipoproteine; Dosis 10 mg/kg/Tag): +14%
- % Veränderung des Cholesterins gegenüber Kontrolle in der Serum-Lipoprotein-Fraktion LDL (Serum-Lipoproteine; Dosis 10 mg/kg/Tag): -36%

SMILES: CCN(C=Nc1ccc(Sc2ccccc2)cc1)S(=O)(=O)c1ccc(C)cc1 [Beispiel 30]
- % Veränderung des Cholesterins gegenüber Kontrolle im Serum (Serum-Lipoproteine; Dosis 10 mg/kg/Tag): -3%
- % Veränderung des Cholesterins gegenüber Kontrolle in der Serum-Lipoprotein-Fraktion HDL (Serum-Lipoproteine; Dosis 10 mg/kg/Tag): -1%
- % Veränderung des Cholesterins gegenüber Kontrolle in der Serum-Lipoprotein-Fraktion LDL (Serum-Lipoproteine; Dosis 10 mg/kg/Tag): -27%

SMILES: Cc1ccc(S(=O)(=O)N(C)C=Nc2ccc(Cl)cc2C(F)(F)F)cc1 [Beispiel 39]
- % Veränderung des Cholesterins gegenüber Kontrolle im Serum (Serum-Lipoproteine; Dosis 3 mg/kg/Tag): -3%
- % Veränderung des Cholesterins gegenüber Kontrolle in der Serum-Lipoprotein-Fraktion HDL (Serum-Lipoproteine; Dosis 3 mg/kg/Tag): -7%
- % Veränderung des Cholesterins gegenüber Kontrolle in der Serum-Lipoprotein-Fraktion LDL (Serum-Lipoproteine; Dosis 3 mg/kg/Tag): -26%
- % Veränderung des Cholesterins gegenüber Kontrolle in der Serum-Lipoprotein-Fraktion VLDL (Serum-Lipoproteine; Dosis 3 mg/kg/Tag): -26%

SMILES: Cc1ccc(S(=O)(=O)N(C=Nc2ccc(Oc3ccccc3)cc2)Cc2ccccc2)cc1 [Beispiel 2]
- % Veränderung des Cholesterins gegenüber Kontrolle im Serum (Serum-Lipoproteine; Dosis 10 mg/kg/Tag): -4%
- % Veränderung des Cholesterins gegenüber Kontrolle in der Serum-Lipoprotein-Fraktion HDL (Serum-Lipoproteine; Dosis 10 mg/kg/Tag): +3%
- % Veränderung des Cholesterins gegenüber Kontrolle in der Serum-Lipoprotein-Fraktion LDL (Serum-Lipoproteine; Dosis 10 mg/kg/Tag): -22%
- % Veränderung des Cholesterins gegenüber Kontrolle in der Serum-Lipoprotein-Fraktion VLDL (Serum-Lipoproteine; Dosis 10 mg/kg/Tag): -50%

SMILES: CN(C#N)C=Nc1ccc(Oc2ccccc2)cc1 [Beispiel 48]
- % Veränderung des Cholesterins gegenüber Kontrolle im Serum (Serum-Lipoproteine; Dosis 3 mg/kg/Tag): -8%
- % Veränderung des Cholesterins gegenüber Kontrolle in der Serum-Lipoprotein-Fraktion HDL (Serum-Lipoproteine; Dosis 3 mg/kg/Tag): -2%
- % Veränderung des Cholesterins gegenüber Kontrolle in der Serum-Lipoprotein-Fraktion LDL (Serum-Lipoproteine; Dosis 3 mg/kg/Tag): -56%

SMILES: Cc1ccc(S(=O)(=O)N(C)C=Nc2ccccc2C)cc1 [Beispiel 37]
- % Veränderung des Cholesterins gegenüber Kontrolle im Serum (Serum-Lipoproteine; Dosis 10 mg/kg/Tag): -8%
- % Veränderung des Cholesterins gegenüber Kontrolle in der Serum-Lipoprotein-Fraktion HDL (Serum-Lipoproteine; Dosis 10 mg/kg/Tag): +3%
- % Veränderung des Cholesterins gegenüber Kontrolle in der Serum-Lipoprotein-Fraktion LDL (Serum-Lipoproteine; Dosis 10 mg/kg/Tag): -51%

SMILES: Cc1ccc(S(=O)(=O)N(C)C=Nc2cc(C(F)(F)F)cc(C(F)(F)F)c2)cc1 [Beispiel 36]
- % Veränderung des Cholesterins gegenüber Kontrolle im Serum (Serum-Lipoproteine; Dosis 10 mg/kg/Tag): -2%
